# Tests used:
# Type in all cases: cell-based
# [1] = target: mouse muscle nAChR αT254C (Mus musculus, UniProt P02716+P04756+P04760, C212S/C213S/T274C); assay: Effect of reducing/oxidizing reagents on ACh-induced current amplitude; details: DTT 10 mM, 2 min; T254C; ACh EC20–50
# [2] = target: mouse muscle nAChR αT254C+L279C (Mus musculus, UniProt P02716+P04756+P04760, C212S/C213S/L299C/T274C); details: 2 min
# [3] = target: wild-type mouse muscle nAChR (αC192S-C193S background) (Mus musculus, UniProt P02716+P04756+P04760, C212S/C213S); assay: Effect of reducing/oxidizing reagents on ACh-induced current amplitude; details: DTT 10 mM, 2 min, ACh EC20–50
# [4] = target: mouse muscle nAChR αT254C+M278C (Mus musculus, UniProt P02716+P04756+P04760, C212S/C213S/M298C/T274C); details: 2 min
# [5] = second DTT 10 mM, after Cu:Phen and EGTA
# Chain of mouse muscle nAChR αT254C+L279C (P04756 21-457 C212S/C213S/T274C/L299C): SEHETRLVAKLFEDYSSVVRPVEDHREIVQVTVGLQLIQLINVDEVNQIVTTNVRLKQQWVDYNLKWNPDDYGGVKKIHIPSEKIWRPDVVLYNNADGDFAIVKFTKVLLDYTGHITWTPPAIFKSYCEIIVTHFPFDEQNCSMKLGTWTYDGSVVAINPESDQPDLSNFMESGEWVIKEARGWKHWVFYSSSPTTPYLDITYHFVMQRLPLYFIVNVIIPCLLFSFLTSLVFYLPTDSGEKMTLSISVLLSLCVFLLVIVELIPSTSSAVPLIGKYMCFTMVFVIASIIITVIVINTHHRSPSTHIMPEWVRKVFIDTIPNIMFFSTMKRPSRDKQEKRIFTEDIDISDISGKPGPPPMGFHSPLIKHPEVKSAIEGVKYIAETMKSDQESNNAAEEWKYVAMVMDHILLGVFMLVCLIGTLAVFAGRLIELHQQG
# Chain of mouse muscle nAChR αT254C+L279C (P09690 24-501 partner): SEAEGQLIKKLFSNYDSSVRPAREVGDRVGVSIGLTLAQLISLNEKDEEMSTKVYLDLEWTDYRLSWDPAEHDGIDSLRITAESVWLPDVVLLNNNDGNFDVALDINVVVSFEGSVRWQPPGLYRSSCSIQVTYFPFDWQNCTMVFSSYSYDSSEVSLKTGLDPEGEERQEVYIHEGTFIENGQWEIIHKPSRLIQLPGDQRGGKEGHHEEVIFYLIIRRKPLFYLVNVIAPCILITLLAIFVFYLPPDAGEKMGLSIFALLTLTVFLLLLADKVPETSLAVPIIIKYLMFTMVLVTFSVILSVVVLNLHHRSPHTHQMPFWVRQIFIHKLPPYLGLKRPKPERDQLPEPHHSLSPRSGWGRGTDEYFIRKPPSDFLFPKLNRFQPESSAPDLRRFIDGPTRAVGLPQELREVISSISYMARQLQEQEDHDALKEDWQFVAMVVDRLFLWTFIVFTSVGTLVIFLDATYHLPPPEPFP
# Chain of mouse muscle nAChR αT254C+L279C (P04760 23-519): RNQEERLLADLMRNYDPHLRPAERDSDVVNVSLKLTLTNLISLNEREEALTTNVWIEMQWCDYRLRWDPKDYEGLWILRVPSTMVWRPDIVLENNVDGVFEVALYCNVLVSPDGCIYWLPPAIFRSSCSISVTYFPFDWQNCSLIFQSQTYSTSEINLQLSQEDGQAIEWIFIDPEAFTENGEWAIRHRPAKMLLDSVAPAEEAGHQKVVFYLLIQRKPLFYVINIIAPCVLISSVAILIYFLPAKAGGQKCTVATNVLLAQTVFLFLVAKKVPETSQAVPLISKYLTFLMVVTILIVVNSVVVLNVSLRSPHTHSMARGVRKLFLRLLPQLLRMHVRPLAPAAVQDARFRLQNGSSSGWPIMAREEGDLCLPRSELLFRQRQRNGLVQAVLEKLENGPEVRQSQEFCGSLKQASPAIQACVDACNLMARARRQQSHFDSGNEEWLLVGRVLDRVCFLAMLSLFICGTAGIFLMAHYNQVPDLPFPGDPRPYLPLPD
# Chain of mouse muscle nAChR αT254C+L279C (P02716 25-520): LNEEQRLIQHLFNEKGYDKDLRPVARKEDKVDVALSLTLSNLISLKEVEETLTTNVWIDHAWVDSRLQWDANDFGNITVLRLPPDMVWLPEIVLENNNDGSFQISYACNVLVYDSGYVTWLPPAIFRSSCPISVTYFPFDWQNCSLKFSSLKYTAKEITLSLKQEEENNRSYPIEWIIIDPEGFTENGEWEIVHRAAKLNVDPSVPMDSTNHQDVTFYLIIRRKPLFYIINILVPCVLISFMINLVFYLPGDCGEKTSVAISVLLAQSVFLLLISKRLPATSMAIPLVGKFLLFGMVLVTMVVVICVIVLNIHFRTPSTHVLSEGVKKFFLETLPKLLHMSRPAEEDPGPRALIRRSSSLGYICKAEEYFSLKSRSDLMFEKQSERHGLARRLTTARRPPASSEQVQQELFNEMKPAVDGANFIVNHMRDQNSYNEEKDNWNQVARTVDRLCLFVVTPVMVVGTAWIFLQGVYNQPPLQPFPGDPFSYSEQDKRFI
# Chain of mouse muscle nAChR αT254C+M278C (P04756 21-457 C212S/C213S/T274C/M298C): as the sequence (P04756 21-457 C212S/C213S/T274C/L299C) above, with M278C, C279L counted along it
# Chain of mouse muscle nAChR αT254C+M278C (P09690 24-501 partner): as the sequence (P09690 24-501 partner) above
# Chain of mouse muscle nAChR αT254C+M278C (P04760 23-519): as the sequence (P04760 23-519) above
# Chain of mouse muscle nAChR αT254C+M278C (P02716 25-520): as the sequence (P02716 25-520) above
# Chain of mouse muscle nAChR αT254C (P04756 21-457 C212S/C213S/T274C): as the sequence (P04756 21-457 C212S/C213S/T274C/L299C) above, with C279L counted along it
# Chain of mouse muscle nAChR αT254C (P09690 24-501 partner): as the sequence (P09690 24-501 partner) above
# Chain of mouse muscle nAChR αT254C (P04760 23-519): as the sequence (P04760 23-519) above
# Chain of mouse muscle nAChR αT254C (P02716 25-520): as the sequence (P02716 25-520) above
# Chain of wild-type mouse muscle nAChR (αC192S-C193S background) (P04756 21-457 C212S/C213S): as the sequence (P04756 21-457 C212S/C213S/T274C/L299C) above, with C254T, C279L counted along it
# Chain of wild-type mouse muscle nAChR (αC192S-C193S background) (P09690 24-501 partner): as the sequence (P09690 24-501 partner) above
# Chain of wild-type mouse muscle nAChR (αC192S-C193S background) (P04760 23-519): as the sequence (P04760 23-519) above
# Chain of wild-type mouse muscle nAChR (αC192S-C193S background) (P02716 25-520): as the sequence (P02716 25-520) above
Structure (SMILES),ACh-induced current amplitude after DTT compared to initial current [1],"decrease of current amplitudes by DTT after Cu:Phen [2, 5] [%]",ACh-induced current amplitude after DTT compared to initial current [3],"increase of current amplitudes by DTT after Cu:Phen [4, 5] [%]","EGTA effect on ACh-induced current amplitudes ([2]; EGTA 2 mM, after Cu:Phen) [%]","EGTA effect on ACh-induced current amplitudes ([4]; EGTA 2 mM, after Cu:Phen) [%]"
"O[C@@H](CS)[C@@H](O)CS (racemic) [DTT, Dithiothreitol]",not significantly altered,47 ± 11,not significantly altered,29 ± 1,,
"O=C(O)CN(CCOCCOCCN(CC(=O)O)CC(=O)O)CC(=O)O [EGTA, Ethylene glycol tetraacetic acid]",,,,,−9 ± 3,1 ± 2

# — paper PMC3676432 (Journal of neurochemistry, 2013)
